≈ marks a conversion by molar mass, not a printed value. Calls of active or inactive are those of the source. The rule behind the calls is not given here.
Assays:
KB = assay: Cytotoxicity against human KB cells; format: functional, cell-based
Human alphaherpesvirus 2 = assay: Antiviral activity against HSV2; format: functional
LoVo = assay: Cytotoxicity against human LoVo cells; format: functional, cell-based
P388 = assay: Cytotoxicity against mouse P388 cells; format: functional, cell-based

Row | SMILES | IC50 (KB) [µg/mL] | MIC (Human alphaherpesvirus 2) [µg/mL] | IC50 (LoVo) [µg/mL] | Activity (P388) | IC50 (P388) [µg/mL]
1 | COc1cccc2c1[nH]c1c(C3=C[C@@]4(O)CC/C=C\CCCCN5CC[C@@H]3[C@]3(C[C@@H]6/C=C\CCCCN6[C@H]34)C5)nccc12 [8-METHOXYMANZAMINE A] | 0.33 (≈ 0.57 µM) | 0.1 (≈ 0.173 µM) | 0.1 (≈ 0.173 µM) |  | 
2 | Oc1cccc2c1[nH]c1c(C3=C[C@@]4(O)CC/C=C\CCCCN5CC[C@@H]3[C@]3(CC6/C=C\CCCCN6[C@H]34)C5)nccc12 (stereo partly specified) | 0.3 (≈ 0.531 µM) | 0.1 (≈ 0.177 µM) | 0.26 (≈ 0.46 µM) | inactive | 
3 | O[C@]12C=C(c3nccc4c3[nH]c3ccccc34)[C@@H]3CCN(CCCC/C=C\CC1)C[C@@]31C[C@@H]3/C=C\CCCCN3[C@H]12 [MANZAMINE A] | 0.05 (≈ 0.0911 µM) | 0.05 (≈ 0.0911 µM) | 0.15 (≈ 0.273 µM) |  | 0.07 (≈ 0.128 µM)

Reference: ChEMBL document CHEMBL1149034, “8-Hydroxymanzamine A, a beta-carboline alkaloid from a sponge, Pachypellina sp” (J Nat Prod, 1994)
